The source of these data is ChEMBL document CHEMBL4342420, “Discovery of AM-6494: A Potent and Orally Efficacious β-Site Amyloid Precursor Protein Cleaving Enzyme 1 (BACE1) Inhibitor with in Vivo Selectivity over BACE2” (J Med Chem, 2020).

Series [1] is described as follows: Stability in human liver microsomes at 1 uM measured after 30 mins in presence of NADPH. In kind it is ADME, Microsome. The settings on record: read-out: Stability. (In general: Liver microsomes are vesicles of endoplasmic reticulum, rich in cytochrome P450 enzymes.)
The nature of series [2]: Stability in rat liver microsomes at 1 uM measured after 30 mins in presence of NADPH. In kind it is ADME, Microsome. The settings on record: read-out: Stability.
The nature of series [3]: Oral bioavailability in rat at 3 mg/kg. The class given is ADME, organism-based. The settings on record: in vivo.
A short description of series [4]: Volume of distribution at steady state in monkey at 1 mg/kg, iv. The class given is ADME, organism-based, Macaca mulatta. The settings on record: rhesus monkey, in vivo, read-out: Vdss.
Series [5] in a line: Half life in monkey at 1 mg/kg, iv. The class given is ADME, organism-based, Macaca mulatta. The settings on record: rhesus monkey, in vivo.
Series [6] can be described thus: AUCt in rat at 3 mg/kg, po. The class given is ADME, organism-based. The settings on record: in vivo.
The nature of series [7]: Volume of distribution at steady state in rat at 1 mg/kg, iv. In kind it is ADME, organism-based. The settings on record: in vivo, read-out: Vdss.
A short description of series [8]: Clearance in Beagle dog at 1 mg/kg, iv. In kind it is ADME, organism-based, Canis lupus familiaris. The settings on record: in vivo.
Series [9] is described as follows: Oral bioavailability in Beagle dog at 10 mg/kg. In kind it is ADME, organism-based, Canis lupus familiaris. The settings on record: in vivo.
Series [10] in a line: Volume of distribution at steady state in Beagle dog at 1 mg/kg, iv. The settings on record: in vivo, read-out: Vdss. In kind it is ADME, organism-based, Canis lupus familiaris.
Series [11] is described as follows: Free plasma concentration in depilated mouse at 100 mg/kg, po administered once daily for 13 days measured 24 hrs post-last dose. The class given is ADME, organism-based. The settings on record: in vivo.
Series [12] in a line: Clearance in monkey at 1 mg/kg, iv. In kind it is ADME, organism-based, Macaca mulatta. The settings on record: rhesus monkey, in vivo.
The nature of series [13]: Stability in monkey liver microsomes at 0.5 uM measured after 30 mins in presence of NADPH. The settings on record: rhesus monkey, read-out: Stability. The class given is ADME, Macaca mulatta, Microsome.
Series [14] in a line: Clearance in rat at 1 mg/kg, iv. The settings on record: in vivo. In kind it is ADME, organism-based.
Series [15] in a line: Stability in dog liver microsomes at 0.5 uM measured after 30 mins in presence of NADPH. In kind it is ADME, Canis lupus familiaris, Microsome. The settings on record: read-out: Stability.
The nature of series [16]: AUCt in Beagle dog at 10 mg/kg, po. The class given is ADME, organism-based, Canis lupus familiaris. The settings on record: in vivo.
Series [17] in a line: AUCt in cynomolgus monkey at 3 mg/kg, po. The class given is ADME, organism-based, Macaca fascicularis. The settings on record: in vivo.
Series [18] in a line: Oral bioavailability in cynomolgus monkey at 3 mg/kg. In kind it is ADME, organism-based, Macaca fascicularis. The settings on record: in vivo.
A short description of series [19]: Half life in rat at 1 mg/kg, iv. In kind it is ADME, organism-based. The settings on record: in vivo.
Series [20] in a line: Half life in Beagle dog at 1 mg/kg, iv. The class given is ADME, organism-based, Canis lupus familiaris. The settings on record: in vivo.
The nature of series [21]: Free plasma concentration in depilated mouse at 120 mg/kg, po administered once daily for 13 days measured 24 hrs post-last dose. In kind it is ADME, organism-based. The settings on record: in vivo.
Series [22] is described as follows: Free plasma concentration in depilated mouse at 10 mg/kg, po administered once daily for 13 days measured 24 hrs post-last dose. The class given is ADME, organism-based. The settings on record: in vivo.
A short description of series [23]: Free plasma concentration in depilated mouse at 30 mg/kg, po administered once daily for 13 days measured 24 hrs post-last dose. In kind it is ADME, organism-based. The settings on record: in vivo.

Where only a bound is given, the exact number is not on record here.

Take `C#CCOc1cnc(C(=O)Nc2cc(F)c(F)c([C@@]3(C)N=C(N)S[C@@]4(CF)C[C@H]43)c2)cn1`: the microsomal CLint at 1 µM in series [1] turned out to be 76 µL/min/mg; in series [2], 87 µL/min/mg.
For `C[C@]1(c2cc(NC(=O)c3ccc(Cl)cn3)cc(F)c2F)N=C(N)S[C@@]2(C(N)=O)C[C@H]21`, in that order: under 14 µL/min/mg and under 14 µL/min/mg.
Regarding `COC[C@]12C[C@H]1[C@@](C)(c1cc(NC(=O)c3cnc(OCCC(F)(F)F)cn3)cc(F)c1F)N=C(N)S2`, the microsomal CLint at 1 µM in series [1] came to 29 µL/min/mg; in series [2], 156 µL/min/mg.
For orientation: bioavailability means dose-corrected exposure relative to a reference, in per cent. One may read the half-life as the time in which the quantity being followed falls by half. Broadly, the clearance is the volume of plasma or blood freed of the substance per unit of time. Regarding `C#CCOc1cnc(C(=O)Nc2cc(F)c(F)c([C@@]3(C)N=C(N)S[C@@]4(COC)C[C@H]43)c2)cn1`, the bioavailability was 48% in [3], 100% in series [9] and 28% in series [18]. The figures for the Vd in [4], in [7] and in series [10] were 17 L/kg, 1.7 L/kg and 3.2 L/kg, respectively. Besides, the half-life in series [5] was 8.3 h; in series [19], 1.5 h; in [20], 2 h. Further, the results for the AUCt in [6], in [16] and in [17] were 2.4 µM·h, 22 µM·h and 2.3 µM·h, respectively. Besides, the figures for the clearance in [8], in [12] and in series [14] were 15 mL/min/kg, 35 mL/min/kg and 21.7 mL/min/kg, respectively. Besides, the “Cp(f)” value in [11] turned out to be 32 nM. Moreover, the microsomal CLint at 1 µM in [1] worked out at 41 µL/min/mg; in series [2], 84 µL/min/mg. Besides, the microsomal CLint at 0.5 µM in series [13] was found to be 146 µL/min/mg; in series [15], 62 µL/min/mg.
For the compound `NC1=N[C@@]2(CO1)c1cc(-c3cccnc3F)ccc1Oc1c2cc(C2=CCCOC2)nc1F`, the “Cp(f)” value was 328 nM in series [21], 38 nM in series [22] and 88 nM in series [23].
